Test results: patent US9284283B2, “Macrocyclic compounds for modulating IL-17” (ENSEMBLE THERAPEUTICS CORPORATION, priority 2012, dated 2016)
pIC50: −log10 of the molar value. Like-named read-outs stand apart in the source and are kept apart here.

What was measured:
[1] = molecular target: T1, biotinylated human IL-17 (binding to IL17R/Fc) (Homo sapiens, UniProt Q16552); assay: IL-17 competition ELISA II (captured IL17R/Fc, biotinylated IL-17)
T1 construct: purchased R&D Systems 317-ILB (IL-17, biotinylated); 177-IR (IL17R/Fc)
T1 sequence (Q16552 20-155 limits assumed): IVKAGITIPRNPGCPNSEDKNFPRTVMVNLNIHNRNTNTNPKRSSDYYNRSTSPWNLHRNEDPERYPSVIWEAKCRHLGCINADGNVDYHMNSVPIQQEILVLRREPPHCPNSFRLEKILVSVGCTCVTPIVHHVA
Method in brief: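 Anti-human IgG-coated plates captured IL17R/Fc (10 nM), then compound (5-fold dilutions from 1 μM) and biotinylated human IL-17 (20 nM stock) were added for 30 min at room temperature in PBST. Bound IL-17 detected by streptavidin-HRP/TMB at 450 nm. IC50 from 4-parameter logistic fit between no-competitor and blank controls.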

[2] = tested on: IL-17A induced secretion of IL-6 in primary human RASF cells; assay: Inhibition of IL17A induced secretion of IL6 in human rheumatoid arthritis synovial fibroblast (RASF) cells; assay type: cell-based
Procedure: This assay was used to determine the extent of inhibition of IL-17A induced secretion of IL-6 in primary human rheumatoid synovial fibroblast (RASF) cells by compounds of the invention. IL-17A is known to stimulate IL-6 production in RASF cells.
Low passage (passage 2-8) Primary human RASF cells (Asterand) were maintained in maintenance medium. Cells were detached from flasks by tryptic digestion and the cell density of the suspension determined. To each well of a 96 well culture plate was added 100 μL of seeding medium containing 50,000 cells/mL and the plate incubated overnight in a humidified 37° C., 5% CO2 incubator. The medium was replaced with fresh assay medium and cells were incubated for additional 5 hours in a humidified 37° C., 5% CO2 incubator prior to stimulation with recombinant human IL-17A (“rhIL-17A”). Prior to addition to cells, rhIL-17A (30 ng/mL) in assay medium was incubated with either DMSO alone, compounds, or anti-IL17 receptor antibody (3 μg/mL) for 1 hour at 37° C. The final concentration of DMSO in all samples was 0.25%. The final concentration of compounds varied from 0.03 μM to 25 μM.
Immediately before stimulation, cells were washed once with fresh assay medium. Then, 100 μL of the test samples was added in triplicate wells and the plates incubated for 20 hours in a humidified 37° C., 5% CO2 incubator. The assay medium from each well was collected and the IL-6 concentration in cell culture supernatants was determined by ELISA either immediately or after storage at −20° C.
A water-soluble tetrazolium salt (WST1) viability assay was immediately performed on the cells after the conditioned medium was collected using a WST1 reagent purchased from Roche. The concentration of IL-6 obtained from ELISA was normalized by the WST1 data.

Row | Structure (SMILES) | pIC50 [1] | pIC50 ([2]; Homo sapiens, Fibroblast) | pIC50 [2]
1 | C[C@H]1NC(=O)[C@@H](Cc2ccc(NC(=O)[C@H](Cc3ccccc3Cl)NC(=O)Cc3ccc(N(C)C)cc3)cc2)NC(=O)CC2(CCCC2)CC(=O)NCCCCCNC1=O [Compound 552] | > 7.00 | > 7.00 | –
2 | O=C1CC2(CCCC2)CC(=O)N[C@H](Cc2ccc(NC(=O)[C@H](Cc3ccccc3Cl)NC(=O)Cc3ccc(F)cc3)cc2)C(=O)N[C@H](C2CCCCC2)C(=O)NCCCCCN1 [Compound 425] | > 7.00 | 6.00 to 7.00 | –
3 | CN1CCCCCN(C)C(=O)[C@@H](CCC(N)=O)NC(=O)[C@@H](Cc2ccc(NC(=O)[C@@H](NC(=O)Cc3ccc(N(C)C)cc3)C3CCCCC3)cc2)NC(=O)CC2(CCCC2)CC1=O [Compound 626] | > 7.00 | 6.00 to 7.00 | –
4 | O=C1CC2(CCCC2)CC(=O)N[C@H](Cc2ccc(NC(=O)[C@H](Cc3ccccc3Cl)NC(=O)Cc3ccc(CO)cc3)cc2)C(=O)N[C@H](Cc2cccnc2)C(=O)NCCCC[C@@H](C(=O)O)N1 [Compound 657] | > 7.00 | > 7.00 | –
5 | O=C1CC2(CCCC2)CC(=O)N[C@H](Cc2ccc(NC(=O)[C@H](Cc3ccccc3Cl)NC(=O)Cc3ccc(CO)cc3)cc2)C(=O)N[C@H](Cc2c[nH]c3ccccc23)C(=O)NCCCC[C@@H](C(=O)O)N1 [Compound 661] | > 7.00 | > 7.00 | –
6 | CN(CCOc1ccc(CC(=O)N[C@@H](Cc2ccccc2Cl)C(=O)Nc2ccc(C[C@H]3NC(=O)CC4(CCCC4)CC(=O)NCCCCCNC(=O)[C@@H](Cc4ccccc4)NC3=O)cc2)cc1)Cc1ccccc1 [Compound 438] | > 7.00 | 6.00 to 7.00 | –
7 | Cc1ccccc1C[C@H](NC(=O)Cc1ccc(F)cc1)C(=O)Nc1ccc(C[C@H]2NC(=O)CC3(CCCC3)CC(=O)NCCCCCNC(=O)[C@@H](C)NC2=O)cc1 [Compound 476] | > 7.00 | 6.00 to 7.00 | –
8 | O=C1CC2(CCCC2)CC(=O)N[C@H](Cc2ccc(NC(=O)[C@H](Cc3ccccc3Cl)NC(=O)Cc3cccc(O)c3)cc2)C(=O)NCCCCCCCCN1 [Compound 441] | > 7.00 | 6.00 to 7.00 | –
9 | O=C1CC2(CCCC2)CC(=O)N[C@H](Cc2ccc(NC(=O)[C@H](Cc3ccccc3Cl)NC(=O)Cc3ccc(CO)cc3)cc2)C(=O)N[C@H](Cc2c[nH]cn2)C(=O)NCCCC[C@@H](C(=O)O)N1 [Compound 662] | > 7.00 | > 7.00 | –
10 | CC(O)[C@H]1NC(=O)[C@@H](Cc2ccc(NC(=O)[C@H](Cc3ccccc3Cl)NC(=O)C(F)(F)c3ccccc3)cc2)NC(=O)CC2(CCCC2)CC(=O)N(C)CCOCCN(C)C1=O (some centres unmarked) [Compound 639] | > 7.00 | 5.00 to 6.00 | –
11 | C[C@H]1NC(=O)[C@@H](Cc2ccc(NC(=O)[C@H](Cc3ccccc3Cl)NC(=O)[C@@H](O)c3ccccc3)cc2)NC(=O)CC2(CCCC2)CC(=O)NCCCCCNC1=O [Compound 550] | > 7.00 | 5.00 to 6.00 | –
12 | C[C@H]1NC(=O)[C@@H](Cc2ccc(NC(=O)[C@H](Cc3ccccc3Cl)NC(=O)[C@H](O)c3ccccc3)cc2)NC(=O)CC2(CCCC2)CC(=O)NCCCCCNC1=O [Compound 551] | > 7.00 | 5.00 to 6.00 | –
13 | O=C1CC2(CCCC2)CC(=O)NC(Cc2ccc(NC(=O)C(Cc3ccccc3Cl)NC(=O)c3cccnc3)cc2)C(=O)NCCOCCOCCN1 (centres unmarked) [Compound 406] | > 7.00 | – | 5.00 to 6.00
14 | C[C@H]1NC(=O)[C@@H](Cc2ccc(NC(=O)[C@H](Cc3ccccc3Cl)Nc3nc4ccccc4o3)cc2)NC(=O)CC2(CCCC2)CC(=O)NCCCCCNC1=O [Compound 555] | > 7.00 | > 7.00 | –
15 | C[C@H]1NC(=O)[C@@H](Cc2ccc(NC(=O)[C@H](Cc3ccccc3Cl)NC(=O)Cc3ccc(F)cc3)cc2)NC(=O)CC2(CCCC2)CC(=O)NCCCCCN(C)C1=O [Compound 470] | > 7.00 | 6.00 to 7.00 | –
16 | C[C@H]1NC(=O)[C@@H](Cc2ccc(NC(=O)[C@H](Cc3ccccc3Cl)NC(=O)Cc3ccc(F)cc3)cc2)N(C)C(=O)CC2(CCCC2)CC(=O)N(C)CCCCCNC1=O [Compound 480] | > 7.00 | 5.00 to 6.00 | –

Row | Structure (SMILES) | pIC50 [1] | pIC50 ([2]; Homo sapiens, Fibroblast) | pIC50 [2]
17 | O=C1CNC(=O)[C@@H](Cc2ccc(NC(=O)[C@H](Cc3ccccc3Cl)NC(=O)Cc3ccc(NC(=O)CNCc4ccccc4)cc3)cc2)NC(=O)CC2(CCCC2)CC(=O)NCCCCCN1 [Compound 405] | > 7.00 | 6.00 to 7.00 | –
18 | O=C1CC2(CCCC2)CC(=O)N[C@H](Cc2ccc(NC(=O)[C@H](Cc3ccccc3Cl)NC(=O)c3cccnc3)cc2)C(=O)NCCCCCCCCN1 [Compound 442] | > 7.00 | 5.00 to 6.00 | –
19 | CN1CCCCCN(C)C(=O)[C@@H](Cc2ccncc2)NC(=O)[C@@H](Cc2ccc(NC(=O)[C@H](Cc3ccccc3Cl)NC(=O)C(F)(F)c3ccccc3)cc2)NC(=O)CC2(CCCC2)CC1=O [Compound 627] | > 7.00 | 6.00 to 7.00 | –
20 | CN1C(=O)CC2(CCCC2)CC(=O)NCCCCCNC(=O)CNC(=O)[C@H]1Cc1ccc(NC(=O)[C@H](Cc2ccccc2Cl)NC(=O)Cc2ccccc2)cc1 [Compound 413] | > 7.00 | < 5.00 | –
21 | CN1CCCCCN(C)C(=O)[C@@H](CCC(N)=O)NC(=O)[C@@H](Cc2ccc(NC(=O)[C@@H](NC(=O)Cc3cccc(O)c3)C3CCCCC3)cc2)NC(=O)CC2(CCCC2)CC1=O [Compound 646] | > 7.00 | 5.00 to 6.00 | –
22 | O=C1CC2(CCCC2)CC(=O)N[C@H](Cc2ccc(NC(=O)[C@H](Cc3ccc(F)cc3Cl)NC(=O)Cc3ccc(F)cc3)cc2)C(=O)NCCOCCOCCN1 [Compound 502] | > 7.00 | 5.00 to 6.00 | –
23 | C[C@H]1NC(=O)[C@@H](Cc2ccc(NC(=O)[C@H](Cc3ccccc3Cl)NC(=O)Cc3ccc(F)cc3)cc2)NC(=O)CC2(CCCC2)CC(=O)N(C)CCCCCNC1=O [Compound 469] | > 7.00 | 5.00 to 6.00 | –
24 | Cc1ccccc1CC(=O)N[C@@H](Cc1ccccc1Cl)C(=O)Nc1ccc(C[C@H]2NC(=O)CC3(CCCC3)CC(=O)NCCOCCOCCNC2=O)cc1 [Compound 495] | > 7.00 | 5.00 to 6.00 | –
25 | CC1NC(=O)C(Cc2ccc(NC(=O)C(Cc3ccccc3Cl)NC(=O)Cc3ccc(F)cc3)cc2)NC(=O)C2(CCCC2)CCC(=O)NCCCCCNC1=O (centres unmarked) [Compound 561] | > 7.00 | – | 5.00 to 6.00
26 | O=C1CNC(=O)[C@@H](Cc2ccc(NC(=O)[C@H](Cc3ccc(F)cc3Cl)NC(=O)Cc3ccc(CO)cc3)cc2)NC(=O)CC2(CCCC2)CC(=O)NCCCCCN1 [Compound 408] | > 7.00 | 6.00 to 7.00 | –
27 | CN1CCCCCNC(=O)CNC(=O)[C@@H](Cc2ccc(NC(=O)[C@H](Cc3ccccc3Cl)NC(=O)Cc3cccc(O)c3)cc2)NC(=O)CC2(CCCC2)CC1=O [Compound 457] | > 7.00 | 5.00 to 6.00 | –
28 | CN1CCCCCN(C)C(=O)[C@@H](CCC(N)=O)NC(=O)[C@@H](Cc2ccc(NC(=O)[C@H](Cc3ccccc3Cl)NC(=O)C(F)(F)c3ccccc3)cc2)NC(=O)CC2(CCCC2)CC1=O [Compound 645] | > 7.00 | 6.00 to 7.00 | –
29 | CN(C)c1ccc(CC(=O)N[C@@H](Cc2ccccc2Cl)C(=O)Nc2ccc(C[C@H]3NC(=O)CC4(CCCC4)CC(=O)NCCOCCOCCNC3=O)cc2)cc1 [Compound 553] | > 7.00 | 6.00 to 7.00 | –
30 | CC(C)C[C@H]1NC(=O)[C@@H](Cc2ccc(NC(=O)[C@H](Cc3ccccc3Cl)NC(=O)Cc3ccc(CO)cc3)cc2)NC(=O)CC2(CCCC2)CC(=O)N[C@H](C(=O)O)CCCCNC1=O [Compound 660] | > 7.00 | > 7.00 | –
31 | O=C1CC2(CCCC2)CC(=O)N[C@H](Cc2ccc(NC(=O)[C@H](Cc3ccccc3Cl)NC(=O)Cc3ccc(F)cc3)cc2)C(=O)NCC#CCCCCCN1 [Compound 446] | > 7.00 | 6.00 to 7.00 | –
